Laboratory results from patent US20260250318A1, “COMPOSITIONS AND METHODS FOR CROSSING THE BLOOD BRAIN BARRIER” (VOYAGER THERAPEUTICS, INC., priority 2022, published 2026).

System: brain, spinal cord, and DRG of the NHPs
Experiment: NGS fold enrichment of synthetic library (passage 3) in NHPs, first cross-species screen
Type: in vivo, cynomolgus macaques (Macaca fascicularis)
Details: synthetic library passage 3, intravenous, RNA NGS, brain of NHPs, relative to wild-type AAV9
Procedure, shortened: (§1)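 Passage-3 synthetic capsid library given intravenously […] to NHPs (2-4 years) and BALB/c or C57Bl/6 mice (n=3, 6-8 weeks). After e.g. 28 days, tissue RNA was RT-PCR amplified and NGS-sequenced; values are fold enrichment of each variant relative to wild-type AAV9.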

Sequence	Fold enrichment over AAV9 in the brain of NHPs
GKSFVPQSGQNQQT	1.489 fold
GVHSLTPSGQNQQT	1.687 fold
GSEYGHKSGQNQQT	6.308 fold
GMGRHSASGQNQQT	1.417 fold
GSIGYAGQGQNQQT	2.157 fold
GSGQFTNAGMNQQT	2.969 fold
GSLGNLQRGQNQQT	1.003 fold
GSGHSPLPQQNQQT	1.562 fold
GSSVGSPIGQNQQT	1.584 fold
GLGYPGSSGQNQQT	1.763 fold
GGLSHVMSGQNQQT	1.875 fold
GSGQSHLHTGNQQT	1.096 fold
GSGHAAISQQNQQT	1.742 fold
GESRAVLSGQNQQT	1.476 fold
GSGLLPLSSQNQQT	2.612 fold
GSDFLGTHGQNQQT	3.171 fold
GSGQNQRVSNSQQT	2.146 fold
GSGQGIHSSVNQQT	1.981 fold
GFSSAVHSGQNQQT	1.502 fold
GSRTLSNVGQNQQT	1.640 fold
GSGQNQQLANMVTT	1.014 fold
GSGMRQAGVQNQQT	1.032 fold
GSLPRGTSDQNQQT	2.362 fold
GSGQNQQTGLRQQT	1.533 fold
GSGSPHPSRQNQQT	3.017 fold
GSGLDYSQRQNQQT	2.056 fold
GPLVNASSGQNQQT	1.434 fold
GSGNPHVRNQNQQT	1.112 fold
GRMFSLGSGQNQQT	1.836 fold

Same assay, conditions: synthetic library passage 3, intravenous, RNA NGS, spinal cord of NHPs, relative to wild-type AAV9

Sequence	Fold enrichment over AAV9 in the spinal cord of NHPs
GKSFVPQSGQNQQT	2.502 fold
GVHSLTPSGQNQQT	4.104 fold
GSEYGHKSGQNQQT	2.750 fold
GMGRHSASGQNQQT	6.500 fold
GSIGYAGQGQNQQT	4.951 fold
GSGQFTNAGMNQQT	0.936 fold
GSLGNLQRGQNQQT	0.895 fold
GSGHSPLPQQNQQT	0.556 fold
GSSVGSPIGQNQQT	3.574 fold
GLGYPGSSGQNQQT	7.090 fold
GGLSHVMSGQNQQT	0.403 fold
GSGQSHLHTGNQQT	2.584 fold
GSGHAAISQQNQQT	2.373 fold
GESRAVLSGQNQQT	0.938 fold
GSGLLPLSSQNQQT	1.130 fold
GSDFLGTHGQNQQT	0.348 fold
GSGQNQRVSNSQQT	0.492 fold
GSGQGIHSSVNQQT	4.873 fold
GFSSAVHSGQNQQT	1.234 fold
GSRTLSNVGQNQQT	3.219 fold
GSGQNQQLANMVTT	1.739 fold
GSGMRQAGVQNQQT	0.811 fold
GSLPRGTSDQNQQT	0.000 fold
GSGQNQQTGLRQQT	2.120 fold
GSGSPHPSRQNQQT	1.993 fold
GSGLDYSQRQNQQT	0.837 fold
GPLVNASSGQNQQT	5.239 fold
GSGNPHVRNQNQQT	0.873 fold
GRMFSLGSGQNQQT	8.429 fold

Same assay, conditions: synthetic library passage 3, intravenous, RNA from brain of NHPs, NGS, relative to wild-type AAV9

Sequence	Fold enrichment over AAV9 in the brain of NHPs
GSLMDVHRGQNQQT	1.150 fold
GSGQNQQHPSTQQT	1.205 fold
GRGPKQSNIQNQQT	1.125 fold

Same assay, conditions: synthetic library passage 3, intravenous, RNA from spinal cord of NHPs, NGS, relative to wild-type AAV9

Sequence	Fold enrichment over AAV9 in the spinal cord of NHPs
GSLMDVHRGQNQQT	0.387 fold
GSGQNQQHPSTQQT	1.552 fold
GRGPKQSNIQNQQT	0.737 fold

System: brain
Experiment: NGS fold enrichment of synthetic library (passage 3) in BALB/c mice, first cross-species screen
Type: in vivo
Details: synthetic library passage 3, intravenous, RNA NGS, brain of BALB/c mice, relative to wild-type AAV9
Procedure, shortened: as §1

Sequence	Fold enrichment over AAV9 in the brain of Mice (BALB/c)
GKSFVPQSGQNQQT	0.430 fold
GVHSLTPSGQNQQT	0.215 fold
GSEYGHKSGQNQQT	5.332 fold
GMGRHSASGQNQQT	0.389 fold
GSIGYAGQGQNQQT	0.712 fold
GSGQFTNAGMNQQT	0.418 fold
GSLGNLQRGQNQQT	0.385 fold
GSGHSPLPQQNQQT	0.247 fold
GSSVGSPIGQNQQT	0.706 fold
GLGYPGSSGQNQQT	0.577 fold
GGLSHVMSGQNQQT	0.378 fold
GSGQSHLHTGNQQT	0.295 fold
GSGHAAISQQNQQT	0.520 fold
GESRAVLSGQNQQT	0.368 fold
GSGLLPLSSQNQQT	0.293 fold
GSDFLGTHGQNQQT	0.750 fold
GSGQNQRVSNSQQT	0.985 fold
GSGQGIHSSVNQQT	0.634 fold
GFSSAVHSGQNQQT	0.210 fold
GSRTLSNVGQNQQT	0.542 fold
GSGQNQQLANMVTT	0.987 fold
GSGMRQAGVQNQQT	0.775 fold
GSLPRGTSDQNQQT	0.495 fold
GSGQNQQTGLRQQT	1.103 fold
GSGSPHPSRQNQQT	0.975 fold
GSGLDYSQRQNQQT	0.217 fold
GPLVNASSGQNQQT	0.343 fold
GSGNPHVRNQNQQT	0.755 fold
GRMFSLGSGQNQQT	1.174 fold

Same assay, conditions: synthetic library passage 3, intravenous, RNA from brain of BALB/c mice, NGS, relative to wild-type AAV9

Sequence	Fold enrichment over AAV9 in the brain of Mice (BALB/c)
GSLMDVHRGQNQQT	0.238 fold
GSGQNQQHPSTQQT	0.680 fold
GRGPKQSNIQNQQT	2.490 fold

System: brain
Experiment: NGS fold enrichment of synthetic library (passage 3) in C57Bl/6 mice, first cross-species screen
Type: in vivo
Details: synthetic library passage 3, intravenous, RNA NGS, brain of C57Bl/6 mice, relative to wild-type AAV9
Procedure, shortened: as §1

Sequence	Fold enrichment over AAV9 in the brain of Mice (C57Bl/6)
GKSFVPQSGQNQQT	1.798 fold
GVHSLTPSGQNQQT	0.475 fold
GSEYGHKSGQNQQT	5.198 fold
GMGRHSASGQNQQT	0.470 fold
GSIGYAGQGQNQQT	1.604 fold
GSGQFTNAGMNQQT	0.565 fold
GSLGNLQRGQNQQT	0.947 fold
GSGHSPLPQQNQQT	0.387 fold
GSSVGSPIGQNQQT	1.059 fold
GLGYPGSSGQNQQT	0.929 fold
GGLSHVMSGQNQQT	0.885 fold
GSGQSHLHTGNQQT	0.721 fold
GSGHAAISQQNQQT	1.211 fold
GESRAVLSGQNQQT	0.789 fold
GSGLLPLSSQNQQT	0.501 fold
GSDFLGTHGQNQQT	1.038 fold
GSGQNQRVSNSQQT	1.086 fold
GSGQGIHSSVNQQT	0.632 fold
GFSSAVHSGQNQQT	0.218 fold
GSRTLSNVGQNQQT	0.617 fold
GSGQNQQLANMVTT	1.253 fold
GSGMRQAGVQNQQT	0.736 fold
GSLPRGTSDQNQQT	0.453 fold
GSGQNQQTGLRQQT	1.217 fold
GSGSPHPSRQNQQT	1.869 fold
GSGLDYSQRQNQQT	0.484 fold
GPLVNASSGQNQQT	0.831 fold
GSGNPHVRNQNQQT	0.732 fold
GRMFSLGSGQNQQT	1.630 fold

Same assay, conditions: synthetic library passage 3, intravenous, RNA from brain of C57Bl/6 mice, NGS, relative to wild-type AAV9

Sequence	Fold enrichment over AAV9 in the brain of Mice (C57Bl/6)
GSLMDVHRGQNQQT	1.009 fold
GSGQNQQHPSTQQT	1.017 fold
GRGPKQSNIQNQQT	0.771 fold
